{"source": "patent US8044023B2", "about": "“Hepatitis C virus inhibitors” (Bristol-Myers Squibb Company, priority 2008, dated 2011)", "key": {"HCV replicon": {"test_system": "HCV replicon", "test": "cell-based HCV replicon assay", "conditions": "Hepatitis C virus", "procedure": "(§1) HCV NS3/4A protease complex enzyme assays and cell-based HCV replicon assays can be utilized in the present disclosure, and can be prepared, conducted and validated as described in the art (see, for Example, WO 2008/064061).\n(§2) Compound 1 was tested as described above and found to have an IC50 (NS3/4A BMS Strain) of 4 nM. The EC50 is 5 nM."}, "NS3/4A BMS Strain": {"biological_target": "NS3/4A BMS Strain (UniProt P27958)", "sequence (P27958 1027-1657)": "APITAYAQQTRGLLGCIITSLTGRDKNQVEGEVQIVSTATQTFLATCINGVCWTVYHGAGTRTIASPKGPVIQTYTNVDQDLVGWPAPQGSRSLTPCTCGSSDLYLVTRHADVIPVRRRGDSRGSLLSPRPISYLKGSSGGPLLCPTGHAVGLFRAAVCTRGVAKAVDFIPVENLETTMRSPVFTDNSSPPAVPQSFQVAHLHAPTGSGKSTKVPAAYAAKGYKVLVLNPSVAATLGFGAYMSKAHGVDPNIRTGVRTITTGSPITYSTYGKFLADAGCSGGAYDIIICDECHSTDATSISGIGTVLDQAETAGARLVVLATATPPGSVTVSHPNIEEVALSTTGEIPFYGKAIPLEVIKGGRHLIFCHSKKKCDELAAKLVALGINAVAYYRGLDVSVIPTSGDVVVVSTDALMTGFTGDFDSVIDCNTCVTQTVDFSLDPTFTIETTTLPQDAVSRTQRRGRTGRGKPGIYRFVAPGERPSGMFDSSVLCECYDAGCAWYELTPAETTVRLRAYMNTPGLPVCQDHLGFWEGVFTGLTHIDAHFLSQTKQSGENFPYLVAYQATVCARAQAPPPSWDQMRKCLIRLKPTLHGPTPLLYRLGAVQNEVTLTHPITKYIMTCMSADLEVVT", "test": "HCV NS3/4A protease complex enzyme assay", "type": "biochemical, Hepatitis C virus", "procedure": "as §1, §2"}}}
{"smiles": "CCCCS[C@@]1(c2ccc(-c3ccccc3)cc2)C[C@H]2C(=O)N[C@]3(C(=O)NS(=O)(=O)C4CC4)C[C@H]3/C=C\\CCCCC[C@H](NC(=O)OC(C)(C)C)C(=O)N2C1", "note": "[Compound 1, tert-butyl (2R,6S,13aS,14aR,16aS,Z)-2-(biphenyl-4-yl)-2-(butylthio)-14a-(cyclopropylsulfonylcarbamoyl)-5,16-dioxo-1,2,3,5,6,7,8,9,10,11,13a,14,14a,15,16,16a-hexadecahydrocyclopropa[e]pyrrolo[1,2-a][1,4]diazacyclopentadecin-6-ylcarbamate]", "values": [{"measurement": "EC50", "setting": "HCV replicon", "result": 5, "unit": "nM"}, {"measurement": "IC50", "setting": "NS3/4A BMS Strain", "result": 4, "unit": "nM"}]}
